Measurements published in PMC10897212, “Structural insight into the allosteric inhibition of human sodium-calcium exchanger NCX1 by XIP and SEA0400” (The EMBO Journal, 2023).

Biological target: T1, Na+/Ca2+ exchanger NCX1.3 (Homo sapiens, UniProt P32418)
T1 construct: gene SLC8A1; full-length wild-type human NCX1.3 (UniProtKB P32418-2); model residues 51–283, 405–501, 518–637, 654–720, and 736–937
Experiment: cryo-EM structure at […] Å; also CPM thermofluor shift (~[…] °C) and Fura-2 Ca2+ uptake inhibition at […] in HEK293T cells
Assay type: binding

CCOc1ccc(Oc2ccc(OCc3cc(F)ccc3F)cc2)c(N)c1 [SEA0400]
cryo-EM structure at 3.5 Å; also CPM thermofluor shift (~10 °C) and Fura-2 Ca2+: The SEA0400 molecule is allocated within a negatively charged cavity surrounded by TM2ab, TM4, TM5, and TM8
